From patent US20240307340A1, “IMMUNOSUPPRESSIVE PHARMACEUTICAL COMPOSITION INCLUDING BENZENE DERIVATIVE AS IMMUNOSUPPRESSANT” (INJE UNIVERSITY INDUSTRY-ACADEMIC COOPERATION FOUNDATION, priority 2021, published 2024)

Key:
[1] = test system: T lymphocyte cell line Jurkat E6-1; assay: Cytotoxicity (CCK-8 viability); format: cell-based; details: 20 h culture
Method: The cytotoxicities of the compounds of Examples 1-19 and Comparative Examples 1-3 to T lymphocyte cell line Jurkat E6-1 provided from the Korea Cell Line Bank were measured using a cell counting kit (CCK-8, Dojindo). After the cell line was allowed to grow in RPMI1640 medium supplemented with 10% FBS, 100 U/mL penicillin, and 100 μg/mL streptomycin, cells were plated in each well of a 96-well plate at a density of 2λ10^4 cells/well and treated with each of the compounds of Examples 1-19 and Comparative Examples 1-3. After culture in a 5% CO2 incubator at 37° C. for 20 h, CCK-8 solution was added to a concentration of 10%, followed by reculture in a 5% CO2 incubator at 37° C. for one and a half hours. The absorbance was measured at 450 nm (Reference: 650 nm) and was expressed in percent relative to the value […] from non-treated cells (viability 100%).
In Table 1, the number 100 corresponds to a viability of 100%.

[2] = test system: BALB/c mice with psoriasis induced by Aldara cream (imiquimod); assay: Imiquimod-induced psoriasis model; format: in vivo; details: for psoriatic skin lesions (photographs, FIG. 49): 40 mg/kg intraperitoneal in 50 μL DMSO; for number of CD4 T cells in spleen (flow cytometry) / number of CD8 T cells in spleen (flow cytometry) / inflammatory cell infiltration (H&E staining of skin) / erythema / skin scaling / skin thickness: 40 mg/kg intraperitoneal; for number of CD4 T cells in spleen (flow cytometry) / number of CD8 T cells in spleen (flow cytometry): splenic T cells; for inflammatory cell infiltration (H&E staining of skin): versus negative control and DMSO group; for erythema / skin scaling / skin thickness: visual observation, P<0.05
Method: A test was conducted to evaluate the alleviation of psoriatic skin lesions using psoriasis animals. To this end, first, BALB/c mice (7 weeks old/20 g/female) purchased from Hana Biotech Co., Ltd., Korea were acclimated to the vivarium for a period of one week. After that, the hair on the back of the mice was shaved and completely removed with a depilatory cream (Niclean cream (thioglycolic acid […], Ildong Pharmaceutical Co., Ltd., Korea)). The animals were bred for 24 h. 80 mg of Aldara® cream (imiquimod 4 mg) was applied daily for 1 week (7 days, 7 times in total) to induce psoriasis, as shown in FIG. 49. Thereafter, 80 mg of Aldara® cream (imiquimod 4 mg) was continuously applied to each group for 10 days. During the administration, an observation was made as to whether psoriasis was alleviated. As a result, skin lesions were alleviated in the group administered the inventive compound than in the negative control or the DMSO-administered group, as shown in FIG. 49.
After the skin tissues of the test subjects were subjected to H&E staining according to the above schedule, the degrees of inflammatory cell infiltration were observed.
FIGS. 56 and 57 show the results of flow cytometry for the groups administered the compounds of Examples 14 and 17. The in vivo effects of the compounds of Examples 14 and 17 on T cells in the test subjects were investigated. To this end, the spleens were harvested from the mice administered each compound and T cells were extracted from the harvested spleens.

| SMILES | viability relative to non-treated cells, 10 μM (%) [1] | viability relative to non-treated cells, 20 μM (%) [1] | viability relative to non-treated cells, 30 μM (%) [1] | psoriatic skin lesions (photographs, FIG. 49) [2] | number of CD4 T cells in spleen (flow cytometry) [2] | number of CD8 T cells in spleen (flow cytometry) [2] | inflammatory cell infiltration (H&E staining of skin) [2] | erythema [2] | skin scaling [2] | skin thickness [2] |
| --- | --- | --- | --- | --- | --- | --- | --- | --- | --- | --- |
| CCCCCCNC(=O)c1ccccc1OC [Example 4] | 96% | 92% | 88% |  |  |  |  |  |  |  |
| CCCCCCCCCCCCNC(=O)c1ccccc1O [Example 7] | 82% | 79.3% | 66% |  |  |  |  |  |  |  |
| CCCCC(CC)CNC(=O)c1ccccc1F (centres unmarked) [Example 8] | 94.7% | 92.2% | 90.9% |  |  |  |  |  |  |  |
| CCCCC(CC)CNC(=O)c1ccccc1Br (centres unmarked) [Example 9] | 95.3% | 95.1% | 92.0% |  |  |  |  |  |  |  |
| CCCCCCCCCCNC(=O)c1ccccc1Br [Example 12] | 91% | 85.3% | 78.5% |  |  |  |  |  |  |  |
| C=CCCCCCCCCCNC(=O)c1ccccc1Br [Example 13] | 98.8% | 97.9% | 90.3% |  |  |  |  |  |  |  |
| CC(C)=CCC/C(C)=C/CNC(=O)c1ccccc1Br [Example 14] | 96.9% | 96.6% | 95.4% | alleviated | decreases | decreases | less inflammatory cell infiltration | significant decreases | significant decreases | significant decreases |
| C=CCCCCCCCCCNC(=O)c1ccccc1F [Example 15] | 88.8% | 91.2% | 93.5% |  |  |  |  |  |  |  |
| CC(C)=CCC/C(C)=C/CNC(=O)c1ccccc1F [Example 16] | 89.3% | 85.7% | 76.3% |  |  |  |  |  |  |  |
| CC(C)=CCC/C(C)=C/CC/C(C)=C/COC(=O)c1ccccc1Br [Example 17] | 73.6% | 72.1% | 72.7% | alleviated | decreases | decreases | less inflammatory cell infiltration | significant decreases | significant decreases | significant decreases |
